Assay results taken from publication PMC7868322, “Rational Design of A Novel Small-Molecule HIV-1 Inactivator Targeting Both gp120 and gp41 of HIV-1” (Frontiers in Pharmacology, 2021).
Read-outs that look alike come from different tables or passages of the source.

Key:
[1] = target: T1, 6HB formation between N36 and C34-biotin (Human immunodeficiency virus type 1 group M subtype B, UniProt P04578); assay: ELISA inhibition of six-helix bundle formation; assay type: biochemical, HIV-1; conditions: IC50, inhibition of 6HB formation between N36 and C34-biotin, peptides 0.5 μM final
T1 construct: preincubated with N36 peptide (2 μM, 50 μL) at 37°C for 1 h; purchased NIH AIDS Reagent Program
Experimental: An inhibitor (compound or C-peptide control) at graded concentrations was preincubated with N36 peptide (2 μM, 50 μL) at 37°C for 1 h. […] Subsequently, 50 μL of the mixture were added to the wells of the NC-1-coated plate, followed by incubation for 1 h. Then, HRP-labeled streptavidin and the substrate were added sequentially. The optical density at 450 nm was measured using a microplate reader (Tecan, Männedorf, Switzerland).

HIV-1 Bal = assay: Inactivation of cell-free HIV-1 virions (PEG-6000 precipitation, p24 ELISA); assay type: cell-based
HIV-1 IIIB (X4) = assay: Inhibition of HIV-1 infection (p24 ELISA); assay type: cell-based
HIV-1 IIIB = assay: Inactivation of cell-free HIV-1 virions (PEG-6000 precipitation, p24 ELISA); assay type: cell-based; conditions: Human immunodeficiency virus 1, IIIB virus inactivation
Cytotoxicity (CCK-8) = assay type: cell-based; conditions: human
Experimental: Cell viability was detected following the instructions in the protocol provided in the cell counting kit-8 (CCK-8; Dojindo Molecular Technologies, Gaithersburg, MD, USA) as previously described ([Yang et al., 2018]). Briefly, MT-2 cells and CEMx174 517 5.25 M7 cells (3 × 10^4/well) were incubated with compounds at different concentrations at 37°C for 48 h. Then, the supernatant was discarded, and CCK8 diluted 10 times with fresh medium was added (200 μL/well). After 2–6 h of incubation at 37°C, the absorbance at 450 nm was measured using a microplate reader (Tecan, Männedorf, Switzerland).

HIV-1 Bal (R5) = assay: Inhibition of HIV-1 infection (p24 ELISA); assay type: cell-based
92/TH/009 (A/E, R5) = assay: Inactivation of cell-free HIV-1 clinical virus; assay type: cell-based; conditions: inactivation of cell-free virions, means ± SD
SM145/GS 016 (C, R5) = assay: Inactivation of cell-free HIV-1 clinical virus; assay type: cell-based; conditions: inactivation of cell-free virions, means ± SD
PBL288 (C, R5) = assay: Inactivation of cell-free HIV-1 clinical virus; assay type: cell-based; conditions: inactivation of cell-free virions, means ± SD
KNH1135 (A, R5) = assay: microbe, parasite or virus in culture; assay type: cell-based, HIV-1; conditions: inactivation of cell-free virions, clinical virus KNH1135 (A, R5); means ± SD
HIV-1 HXB2 gp120 = target: T2, HIV-1 HXB2 gp120 (Human immunodeficiency virus type 1 group M subtype B, UniProt P04578); assay: Flow cytometry competition with gp120 CD4bs-targeting mAbs on CHO-WT cells; assay type: binding; conditions: 100 µM
T2 construct: CHO-WT cells expressing HIV-1 HXB2 gp120; host or cells: CHO-WT cells
Experimental: Flow cytometry was used to detect compounds that competed with gp120 CD4bs-targeting mAbs for binding to gp120. In brief, 100 µL of FD016 at a concentration of 100 µM or PBS was first incubated with CHO-WT cells expressing HIV-1 HXB2 gp120 for 30 min at room temperature, and then gp120 CD4bs-targeting mAbs (5 μg/mL, 100 µL) and FITC-labeled goat anti-human secondary antibody were added successively. After three washes, the cells were analyzed with flow cytometry. ELISA was carried out to detect the activity of compounds that inhibit the binding of soluble CD4 (sCD4) or gp120 CD4bs-targeting mAbs to gp120 as previously described ([Si et al., 2004]; [Curreli et al., 2014]). Briefly, for sCD4 and gp120 binding, 50 µL of HIV-1 IIIB gp120 at 0.5 μg/mL was captured on polystyrene plate coated with sheep anti-gp120 antibody D7324 (Aalto Bio Reagents). sCD4 (ImmunoDiagnostics, Inc.) at 200 ng/mL was then added in the presence of an equal volume of different concentrations of compounds or PBS and incubated at 37°C for 1 h. […] After adding 3,3′,5,5′-tetramethylbenzidine chromogen substrate and sulfuric acid, the absorbance at 450 nm (A450) was recorded using a Microplate Reader (Tecan, Männedorf, Switzerland).

[2] = Human immunodeficiency virus 1, MT2, laboratory-adapted strain IIIB, MT-2 cells, p24 ELISA, read-out: IC50, inhibition of HIV-1 IIIB infection
[3] = CEMx174 5.25 M7 cells, read-out: CC50, CEMx174 5.25 M7 cell
[4] = MT-2 cells, read-out: CC50, MT-2 cell
[5] = Human immunodeficiency virus 1, laboratory-adapted strain Bal, CEMx174 5.25 M7 cells, p24 ELISA, read-out: IC50, inhibition of HIV-1 Bal infection

Which IC50 [1] does the source give for O=C(O)c1cc(-c2ccc(/C=C3\SC(=S)N(CCc4ccc(O)cc4)C3=O)o2)ccc1Cl [FD017, (Z)-2-Chloro-5-(5-((3-(4-Hydroxyphenethyl)-4-oxo-2-Thioxothiazolidin-5-ylidene)methyl)furan-2-yl)benzoic Acid] here?
Its IC50 is 1360 nM.

And the EC50 (HIV-1 Bal; Human immunodeficiency virus 1, Bal virus inactivation, alone, read-out: EC50 of FD017, Alone)?
The EC50 was > 5000 nM.

What about the EC50 (HIV-1 Bal; Human immunodeficiency virus 1, Bal virus inactivation, in mixture with FD016, read-out: EC50 of FD017, In mixture) of the same compound?
The EC50 was 1380 nM.

What about the IC50 (HIV-1 IIIB (X4); [2]) of the same compound?
The IC50 was 1440 nM.

And the IC50 (HIV-1 IIIB (X4); Human immunodeficiency virus 1, IIIB, combination experiment, alone, read-out: IC50 of FD017, Alone)?
The IC50 was 1800 nM.

What about the IC50 (HIV-1 IIIB (X4); Human immunodeficiency virus 1, IIIB, in mixture with FD016, read-out: IC50 of FD017, In mixture) of the same compound?
Its IC50 is 590 nM.

And the EC50 (HIV-1 IIIB; alone, read-out: EC50 of FD017, Alone)?
Its EC50 is > 10000 nM.

And the EC50 (HIV-1 IIIB; in mixture with FD016, read-out: EC50 of FD017, In mixture)?
Its EC50 is 1210 nM.

And the CC50 at 48 h (Cytotoxicity (CCK-8); [3])?
Its CC50 at 48 h is 39800 nM.

And the CC50 at 48 h (Cytotoxicity (CCK-8); [4])?
The CC50 at 48 h was 47900 nM.

And the IC50 (HIV-1 Bal (R5); Human immunodeficiency virus 1, Bal, combination experiment, alone, read-out: IC50 of FD017, Alone)?
The IC50 was 1480 nM.

What about the IC50 (HIV-1 Bal (R5); Human immunodeficiency virus 1, Bal, in mixture with FD016, read-out: IC50 of FD017, In mixture) of the same compound?
The IC50 was 910 nM.

And the IC50 (HIV-1 Bal (R5); [5])?
Its IC50 is 830 nM.

Which results are given for Maraviroc [reference compound]?
EC50 (92/TH/009 (A/E, R5)): > 500 nM; EC50 (HIV-1 Bal; cell-free virions, 1 h at 4°C, PEG-6000 precipitation, read-out: EC50, inactivation of HIV-1 Bal): > 500 nM; EC50 (SM145/GS 016 (C, R5)): > 500 nM; EC50 (PBL288 (C, R5)): > 500 nM; EC50 (KNH1135 (A, R5)): > 500 nM; IC50 (HIV-1 Bal (R5); laboratory-adapted strain Bal, CEMx174 5.25 M7 cells, p24 ELISA, read-out: IC50, inhibition of HIV-1 Bal infection): 1 nM

Which EC50 (HIV-1 Bal; Human immunodeficiency virus 1, Bal virus inactivation, alone, read-out: EC50 of FD016, Alone) does the source give for CC1(C)CC(NC(=O)C(=O)Nc2ccc(Cl)c(F)c2)CC(C)(C)N1 [FD016, N^1-(4-Chloro-3-Fluorophenyl)-N^2-(2,2,6,6-Tetramethylpiperidin-4-yl) Oxalamide] here?
The EC50 was > 20000 nM.

What about the EC50 (HIV-1 Bal; Human immunodeficiency virus 1, Bal virus inactivation, in mixture with FD017, read-out: EC50 of FD016, In mixture) of the same compound?
Its EC50 is 2630 nM.

And the IC50 (HIV-1 IIIB (X4); [2])?
The IC50 was 5930 nM.

What about the IC50 (HIV-1 IIIB (X4); Human immunodeficiency virus 1, IIIB, combination experiment, alone, read-out: IC50 of FD016, Alone) of the same compound?
The IC50 was 4400 nM.

And the IC50 (HIV-1 IIIB (X4); Human immunodeficiency virus 1, IIIB, in mixture with FD017, read-out: IC50 of FD016, In mixture)?
Its IC50 is 1190 nM.

What about the EC50 (HIV-1 IIIB; alone, read-out: EC50 of FD016, Alone) of the same compound?
Its EC50 is > 10000 nM.

What about the EC50 (HIV-1 IIIB; in mixture with FD017, read-out: EC50 of FD016, In mixture) of the same compound?
Its EC50 is 2510 nM.

And the CC50 at 48 h (Cytotoxicity (CCK-8); [3])?
The CC50 at 48 h was > 50000 nM.

What about the CC50 at 48 h (Cytotoxicity (CCK-8); [4]) of the same compound?
The CC50 at 48 h was > 50000 nM.

And the “Inhibition of gp120 CD4bs mAbs (B12 and N6) binding to gp120-expressing CHO cells” value (HIV-1 HXB2 gp120)?
The value was “could inhibit the interaction of gp120 and CD4bs-targeting mAbs effectively”.

What about the IC50 (HIV-1 Bal (R5); Human immunodeficiency virus 1, Bal, combination experiment, alone, read-out: IC50 of FD016, Alone) of the same compound?
Its IC50 is 18800 nM.

And the IC50 (HIV-1 Bal (R5); Human immunodeficiency virus 1, Bal, in mixture with FD017, read-out: IC50 of FD016, In mixture)?
The IC50 was 1820 nM.

What about the IC50 (HIV-1 Bal (R5); [5]) of the same compound?
The IC50 was 17000 nM.
